Source: US20120252119A1, “METHODS FOR THE COLLECTION AND MATURATION OF OOCYTES” (priority 2009, published 2012)

Legend:
[1] = system: FSH-induced oocyte maturation; experiment: EGFR kinase inhibitor on FSH-induced oocyte maturation in presence of cilostamide; type: cell-based, bovine
Protocol: The basic oocyte maturation medium (also referred to as the “IVM medium” or “IVM phase medium”) used for the IVM phase was a bovine maturation medium (termed Bovine VitroMat, Cook Australia), a medium formulated to closely replicate the ionic composition of bovine follicular fluid. Where indicated, the type-3 PDE specific inhibitor cilostamide (20 μM; Biomol Plymouth Meeting, Pa.) or the epidermal growth factor receptor (EGFR) kinase inhibitor, AG1478 (Alexis Biochemicals, San Diego, Calif.), were added to the IVM medium from a millimolar stock solution stored at −20° C. dissolved in DMSO. […]
At the end of the incubation, COCs were denuded and oocytes were fixed for 30 min in 4% paraformaldehyde in PBS (pH 7.4). Oocytes were then permeabilized in 0.1% Triton X-100 in 0.1% sodium citrate for 1 hour, then transferred to 0.001% 4′,6-diamidino-2-phenylindole (DAPI), a fluorescence stain for nuclear material, for 15 min. Oocytes were rinsed 3 times in PBS+0.03% BSA, mounted on slides and evaluated for nuclear status at 400× using an Olympus fluorescence microscope. Stages of germinal vesicle (GV) and subsequent meiotic development were assessed based on known techniques (Chohan and Hunter, 2003, Anim. Reprod. Sci. 76: 43-51). […]
Oocytes were then fixed and assessed for meiotic progression at 24 hours. […]

[2] = system: human oocytes; experiment: Human oocyte IVM, meiosis score; type: cell-based; conditions: for % GV / % GVBD / % PB: IVM with 0.1 μM cilostamide and FSH
Protocol: Immature human cumulus-oocyte complexes (COC) were collected from young, healthy women (not from IVF patients). […] Oocyte pick-up was performed when the lead ovarian follicle reached 12 mm. Immature oocytes were then stratified to various treatments during either the Pre-IVM or IVM periods, as detailed below. In addition, time of removal of somatic cells from oocytes (denuding) during the oocyte maturation period was examined. The following trials were conducted: • Dose of PDE3-inhibitor (cilostamide) during IVM: 0 versus 0.1 versus 1.0 μM • cAMP modulators during Pre-IVM: control versus IBMX versus IBMX+forskolin • Effect of time of oocyte denuding on embryo development: 30 versus 40 versus 44-48 hours
At the oocyte pick-up, COC were collected immediately into pre-IVM treatments in VitroCollect medium (Cook Australia, Brisbane, Australia) and held for one hour. Following pre-IVM, COC were washed and then transferred to IVM treatments (e.g. dose of cilostamide) in VitroMat medium (Cook) and matured under standard conditions. At the various times post-denuding, oocytes were monitored for maturation (polar body [PB] extrusion). At the end of maturation (48 hours) a final meiosis score was given. As oocytes matured they were inseminated using standard intra-cytoplasmic sperm injection (ICSI) procedures using donor sperm. 24 hours later fertilisation rates were determined. Embryos were cultured for up to 6 days until developmental arrest using standard procedures.

[3] = system: cAMP content of the whole COCs; experiment: cAMP content of bovine COCs, radioimmunoassay; type: cell-based; conditions: agent alone, up to 2 hours, FIG. 2
Protocol: Oocytes were aspirated with their cumulus vestments intact (COCs). A subset of the COCs were denuded of their cumulus vestment prior to assay (DO). Aspiration and subsequent selection procedures (pre-IVM phase) were performed for 2 hours where oocytes (COCs and DOs) were processed in various media (termed “pre-IVM phase media” or “pre-IVM media”). These included processing of oocytes either in follicular fluid, or in two types of collection medium. […] Cyclic AMP content of COCs and denuded oocytes (DOs), i.e. those oocytes cultured as COCs but denuded of their cumulus vestment prior to assay, were measured using a radioimmunoassay method described and validated previously (Reddoch et al., 1986, Endocrinology 119: 879-886). […] Briefly, supernatants were collected, evaporated, resuspended in assay buffer (50 mM sodium acetate, pH 5.5) and acetylated by the addition of triethylamine (AJAX Chemicals, Sydney, Australia) and acetic anhydride (BDH Laboratory Supplies, Poole, England) 2:1 v/v. cAMP was measured in duplicates after appropriate dilution. ^125I-labelled cAMP (specific activity of 2175 Ci/mM) and cAMP antibody (as prepared by Reddoch et al supra) were added to samples and left overnight at 4° C. […] The supernatant was removed and the pellet dried and counted using a gamma counter. […]

[4] = system: bovine oocytes; experiment: Bovine in vitro fertilization and embryo culture (cleavage, blastocyst development); type: cell-based
Protocol: At 24 or 30 hours after IVM, COCs were washed twice using Bovine VitroWash (Cook Australia), and transferred to insemination dishes containing in vitro fertilisation (IVF) medium (Bovine VitroFert, Cook Australia) supplemented with penicillamine (0.2 mM; Sigma), hypotaurine (0.1 mM; Sigma), and heparin (2 mg/ml; Sigma). Frozen semen from a single bull of proven fertility was used for insemination. Briefly, thawed semen was layered over a discontinuous (45%: 90%) Percoll gradient (Amersham Bioscience) and centrifuged for 20-25 minutes at 700 g. The supernatant was removed and the sperm pellet was washed with 500 μl Bovine VitroWash and centrifuged for a further 5 minutes at 200 g. […] Embryos were assessed for quality at Day 8 according to the definitions presented in Stingfellow and Seidel, 1998, Manual of the International Embryo Transfer Society. […]
Therefore, cumulus-oocyte complexes (COCs) were aspirated and selected in either follicular fluid, collection medium or collection medium supplemented with 100 μM forskolin (FSK) and 500 μM IBMX for 2 hours. […] Oocyte developmental capacity was then assessed after in vitro fertilization and embryo development was assessed by the cleavage rate and blastocyst rate on day 8. […]

[5] = system: oocyte-cumulus cell gap junctional communication; experiment: Oocyte-cumulus cell gap junctional communication assay (calcein transfer); type: cell-based, bovine; conditions: after 3 hours of IVM culture post pre-IVM phase, FIG. 7
Protocol: Cumulus-oocyte gap junctional communication (GJC) was measured by quantitative fluorescence microscopy of calcein transfer to the oocyte as described previously (Thomas et al., 2004, In “Biol. Reprod.”, pp 1142-1149). GJC was measured either after 2 hours of pre-IVM phase or followed by an additional 3 hours of IVM with or without cilostamide (20 μM). A mean number of 10-12 oocytes were used in each treatment group in each of four replicate experiments. After culture, COCs were transferred to a solution of 1 μM calcein-AM (3′,6′-di(O-acetyl)-2′,7′-bis[N,N-bis(carboxymethyl)amino methyl]-fluorescein, tetraacetoxy methyl ester; C-3100; Molecular Probes; Eugene, Oreg., USA) freshly prepared in a BSA-free Bovine VitroCollect (Cook Australia) supplemented with polyvinyl alcohol (PVA; 0.3 mg/ml). […] Prior to fluorescence microphotometry, COCs were completely denuded of their surrounding cumulus cells using vigorous pipetting so that only dye confined within the denuded oocyte after transport via gap junctions was measured. Within 30 minutes of denuding, the intra-oocyte fluorescence emission of calcein in oocytes was measured using a fluorophotometric-inverted microscope (Leica, Wetzlar, Germany). […]

[6] = system: bovine oocytes; experiment: Oocyte nuclear morphology assessment (GV configuration, GVBD, meiotic progression); type: cell-based
Protocol: At the end of the incubation, COCs were denuded and oocytes were fixed for 30 min in 4% paraformaldehyde in PBS (pH 7.4). Oocytes were then permeabilized in 0.1% Triton X-100 in 0.1% sodium citrate for 1 hour, then transferred to 0.001% 4′,6-diamidino-2-phenylindole (DAPI), a fluorescence stain for nuclear material, for 15 min. Oocytes were rinsed 3 times in PBS+0.03% BSA, mounted on slides and evaluated for nuclear status at 400× using an Olympus fluorescence microscope. Stages of germinal vesicle (GV) and subsequent meiotic development were assessed based on known techniques (Chohan and Hunter, 2003, Anim. Reprod. Sci. 76: 43-51). In brief, GV chromatin of bovine oocytes was classified into: GV I—condensed filamentous chromatin around the nucleolus and nuclear membrane; GV II—filamentous chromatin surrounding the nucleolus; GV III—filamentous chromatin clumps are distributed in the nucleus and the nucleolus has disappeared; GV IV—chromatin has condensed into a thick clump; Early diakenesis-chromatin beginning to condense into a single lump; Diakenesis-chromatin has condensed into a single lump; Metaphase I—tetrads are aligned on the spindle; and Metaphase II—the metaphase chromatin is evident as well as a small chromatin-containing polar body.
Oocytes were then fixed and assessed for meiotic progression and classified as GV (germinal vesical intact—still under meiotic arrest) or GVBD (germinal vesical breakdown—resumption of meiosis). A mean number of 45 oocytes were used in each treatment group and time-point from four replicate experiments. The presence of letters (a or b) above each column indicate a statistical difference between the means as determined by ANOVA analysis followed by Bonferronni's post hoc test, P<0.05.
Oocytes were exposed to pre-IVM phase media comprising pure follicular fluid, collection medium, or collection medium supplemented with cAMP modulators (forskolin and IBMX) (A), followed by extended culture in the presence (C; E) or absence (B; D) of the type-3 PDE inhibitor, cilostamide (20 μM), plus follicle stimulating hormone. Oocytes were then fixed and assessed for GV configuration at 2, 5 and 9 hours. A mean number of 40 oocytes were used in each treatment group and time-point from four replicate experiments.
As indicated above, oocytes were aspirated and selected in either follicular fluid, collection medium or collection medium supplemented with 100 μM forskolin (FSK) and 500 μM IBMX for 2 hours. […] Oocytes were then fixed and assessed for meiotic progression at 20, 24 and 28 hours. A mean number of 45 oocytes were used in each treatment group and time-point from four replicate experiments.

COc1cc2ncnc(Nc3cccc(Cl)c3)c2cc1OC [AG1478]
maturation percentage ([1]; FSH 100 mlU, cilostamide 20 μM, increasing doses of AG1478, 24 hours, from >80% without, FIG. 10): approximately 5%
meiotic recovery of FSH and cilostamide treated COCs ([1]; increasing doses of AG1478): completely prevented the meiotic recovery

CC(C)Cn1c(=O)n(C)c(=O)c2[nH]cnc21 [IBMX, 3-isobutyl 1-methylxanthine]
% GV ([2]; 36-40 hours): 10.3%
% GVBD ([2]; 36-40 hours): 43.6%
% PB ([2]; 36-40 hours): 46.2%
% GV ([2]; 42-44 hours): 9.4%
% GVBD ([2]; 42-44 hours): 28.1%
% PB ([2]; 42-44 hours): 62.5%
% GV ([2]; 30 hours): 11.1%
% GVBD ([2]; 30 hours): 48.1%
% PB ([2]; 30 hours): 40.7%
% GV ([2]; 48 hours): 10.3%
% GVBD ([2]; 48 hours): 28.2%
% PB ([2]; 48 hours): 61.5%
COC cAMP levels during pre-IVM [3]: maintained cAMP levels for 2 hours
development to the blastocyst stage ([4]; 30-60 minutes pre-IVM, IVM with 20 μM cilostamide, FIG. 11B): significantly higher than control

CN(C(=O)CCCOc1ccc2[nH]c(=O)ccc2c1)C1CCCCC1 [cilostamide]
effect of dose on resumption of meiosis ([2]; cilostamide 0.1 μM): non-inhibiting
Germinal Vesicle Breakdown ([2]; cilostamide 0.1 μM during IVM (n = 39)): 44%
effect of dose on resumption of meiosis ([2]; cilostamide 1.0 μM): inhibiting dose
Germinal Vesicle Breakdown ([2]; cilostamide 1.0 μM during IVM (n = 38)): 13%
levels of gap junctional communication [5]: had no effect in maintaining the level of gap junctional communication
rates of GVBD ([6]; 2 h pre-IVM, 7 h IVM with FSH and cilostamide 20 μM, all pre-IVM treatments, FIG. 5): significantly lowered the rates of GVBD
oocytes at GV IV ([6]; 9 hours, collection medium lacking cAMP modulators, 7 h IVM+cilostamide, FIG. 6E): 51%±10
oocytes at M I stage ([6]; 20 hours of IVM with cilostamide, absence of FSH, FIG. 8A): 36%±4
oocytes at M I stage ([6]; 20 hours of IVM+cilostamide, presence of FSH, FIG. 8B): 21%±4
oocytes progressed to M II stage ([6]; 24 hours of IVM with cilostamide, absence of FSH, FIG. 8A): 50%
oocytes arrested at the M I stage ([6]; cilostamide, absence of FSH, 24 hours of culture, FIG. 8A): 40-50%
% Blastocysts ([4]; collection phase CM without cAMP modulators, IVM +cilostamide, maturation time 24): 22%
